Test results taken from patent publication US10513519B2, “Solid forms of (1S,4S)-4-(2-(((3S,4R)-3-fluorotetrahydro-2H-pyran-4-yl)amino)-8-((2,4,6-trichlorophenyl)amino)-9H-purin-9-yl)-1-methylcyclohexane-1-carboxamide and methods of their use” (Signal Pharmaceuticals, LLC, priority 2016, dated 2019).

System: cancer cell lines
Experiment: Multiplexed cytotoxicity assay: cell proliferation (relative cell count IC50, GI50)
Type: cell-based
Settings: Homo sapiens
Protocol: (§1) Cells are grown in RPMI1640, 10% FBS, 2 mM L-alanyl-L-Glutamine, 1 mM Na pyruvate or a special medium in a humidified atmosphere of 5% CO2 at 37° C. Cells are seeded into 384-well plates and incubated in a humidified atmosphere of 5% CO2 at 37° C. Compounds are added 24 h post cell seeding. At the same time, a time zero untreated cell plate is generated. After a 72 hour incubation period, cells are fixed and stained with fluorescently labeled antibodies and nuclear dye to allow visualization of nuclei, apoptotic cells and mitotic cells. Apoptotic cells are detected using an anti-active caspase-3 antibody. Mitotic cells are detected using an anti phospho-histone-3 antibody. Compounds are serially diluted 3.16-fold and assayed over 10 concentrations in a final assay concentration of 0.1% DMSO from the highest test concentration of 10 μM. Automated fluorescence microscopy was carried out using a Molecular Devices ImageXpress Micro XL high-content imager, and images are collected with a 4× objective.
(§2) Sixteen-bit TIFF images are acquired and analyzed with MetaXpress 5.1.0.41 software. Cell proliferation is measured by the signal intensity of the incorporated nuclear dye. The cell proliferation assay output is referred to as the relative cell count. To determine the cell proliferation end point, the cell proliferation data output is transformed to percentage of control (POC) using the following formula: POC=relative cell count(compound wells)/relative cell count(vehicle wells)×100
(§3) GI50 is the concentration needed to reduce the observed growth by half. This is the concentration that inhibits the growth to the level midway between growth in untreated cells and the number of cells seeded in the well (Time zero value). The IC50 values are calculated using nonlinear regression to fit data to a sigmoidal 4 point, 4 parameter One-Site dose response model, where: y(fit)=A+[(B−A)/(1+((C/x)^D))].
as §1, with “In another experiment, cells were grown” for “Cells are grown”, “Cells were” for “Cells are”, “Compounds were” for “Compounds are”, “plate was” for “plate is”, “cells were” for “cells are”, “images were” for “images are”
as §2, with “images were” for “images are”, “proliferation was” for “proliferation is”, “output was” for “output is”
as §3, with “GI50 refers to” for “GI50 is”, “This corresponds to” for “This is”, “values were” for “values are”

[1] = JIYOYE, JIYOYE (Hematopoietic and lymphoid, Lymphoma)
[2] = JeKo-1, JEKO1 (Hematopoietic and lymphoid, Lymphoma)
[3] = Jurkat, JURKAT (Hematopoietic and lymphoid, Leukemia)
[4] = K562, K562 (Hematopoietic and lymphoid, Leukemia)
[5] = KATO III, 72 h, KATOIII, Stomach
[6] = KU812, KU812 (Hematopoietic and lymphoid, Leukemia)
[7] = L-428, L428 (Hematopoietic and lymphoid, Lymphoma)
[8] = MC116, MC116 (Hematopoietic and lymphoid, Lymphoma)
[9] = MC-IXC, 72 h, MCIXC, CNS, Neuroblastoma
[10] = ME-180, 72 h, ME180, Female GU, Ovary, 72 h
[11] = MEG-01, MEG01 (Hematopoietic and lymphoid, Leukemia)
[12] = MES-SA, 72 h, MESSA, Soft Tissue, Sarcoma
[13] = MG-63, 72 h, MG63, Soft Tissue, Osteosarcoma, 72 h
[14] = MHH-PREB-1, MHHPREB1 (Hematopoietic and lymphoid, Leukemia)
[15] = MIA PaCa-2, 72 h, MIAPACA2, Pancreas, 72 h
[16] = MOLT-3, MOLT3 (Hematopoietic and lymphoid, Leukemia)
[17] = MOLT-16, MOLT16 (Hematopoietic and lymphoid, Leukemia)
[18] = MV4-11, MV411 (Hematopoietic and lymphoid, Leukemia)
[19] = Malme-3M, MALME3M (Skin, Melanoma)
[20] = NALM-6, NALM6 (Hematopoietic and lymphoid, Leukemia)
[21] = NCI-H69, 72 h, NCIH69, Lung, SCLC, 72 h
[22] = NCI-H292, 72 h, NCIH292, Lung, NSCLC, 72 h
[23] = NCI-H295R, NCIH295R (Endocrine, Adrenal gland)

C[C@]1(C(N)=O)CC[C@@H](n2c(Nc3c(Cl)cc(Cl)cc3Cl)nc3cnc(N[C@@H]4CCOC[C@H]4F)nc32)CC1 [Compound 1, cis-4-[2-{[(3S,4R)-3-fluorooxan-4-yl]amino}-8-(2,4,6-trichloroanilino)-9H-purin-9-yl]-1-methylcyclohexane-1-carboxamide] showed a GI50 [1] of 81.4 nM, an IC50 [1] of 210 nM and a GI50 [2] of 461 nM. For the same compound, the IC50 [2] was 830 nM, the GI50 [3] was 3340 nM and the IC50 [3] was 3730 nM. The GI50 [4] was > 10000 nM, the IC50 [4] was > 10000 nM and the GI50 [5] was 61.2 nM. The IC50 [5] was 78.7 nM, the GI50 [6] was 3 nM and the IC50 [6] was 15.9 nM. The GI50 [7] was 1630 nM, the IC50 [7] was 3460 nM and the GI50 (LNCaP, 72 h, Prostate) was 2430 nM. For the same compound, the IC50 (LNCaP, 72 h, Prostate) was 5070 nM, the GI50 (LS174T, LS174T (Colon)) was 194 nM and the IC50 (LS174T, LS174T (Colon)) was 259 nM. It also gave a GI50 (LS-123, LS123 (Colon)) of 61 nM, an IC50 (LS-123, LS123 (Colon)) of 188 nM and a GI50 (LS-411N, LS411N (Colon)) of 35.8 nM. For the same compound, the IC50 (LS-411N, LS411N (Colon)) was 53 nM, the GI50 (LS-513, LS513 (Colon)) was 35.3 nM and the IC50 (LS-513, LS513 (Colon)) was 38.6 nM. The GI50 (LS-1034, LS1034 (Colon)) was 224 nM, the IC50 (LS-1034, LS1034 (Colon)) was 676 nM and the GI50 (M059J, M059J (CNS, Glioma)) was 612 nM. For the same compound, the IC50 (M059J, M059J (CNS, Glioma)) was 3310 nM, the GI50 [8] was 6020 nM and the IC50 [8] was 6490 nM. The GI50 [9] was 2040 nM, the IC50 [9] was 2330 nM and the GI50 (MCF7, MCF7 (Breast)) was 636 nM. For the same compound, the IC50 (MCF7, MCF7 (Breast)) was 3470 nM, the GI50 (MDA-MB-231, MDAMB231 (Breast)) was 33.9 nM and the IC50 (MDA-MB-231, MDAMB231 (Breast)) was 62.4 nM. For the same compound, the GI50 (MDA-MB-415, MDAMB415 (Breast)) was 729 nM, the IC50 (MDA-MB-415, MDAMB415 (Breast)) was > 10000 nM and the GI50 (MDA-MB-436, MDAMB436 (Breast)) was 262 nM. The IC50 (MDA-MB-436, MDAMB436 (Breast)) was > 10000 nM, the GI50 (MDA-MB-453, MDAMB453 (Breast)) was 656 nM and the IC50 (MDA-MB-453, MDAMB453 (Breast)) was 2820 nM. The GI50 (MDA-MB-468, MDAMB468 (Breast)) was 36.3 nM, the IC50 (MDA-MB-468, MDAMB468 (Breast)) was 72.1 nM and the GI50 [10] was > 10000 nM. For the same compound, the IC50 [10] was > 10000 nM, the GI50 [11] was 81.8 nM and the IC50 [11] was 221 nM. The GI50 [12] was 810 nM, the IC50 [12] was 1100 nM and the GI50 [13] was 108 nM. For the same compound, the IC50 [13] was 115 nM, the GI50 [14] was 6690 nM and the IC50 [14] was 6970 nM. For the same compound, the GI50 [15] was 35.7 nM, the IC50 [15] was 39.6 nM and the GI50 [16] was 946 nM. For the same compound, the IC50 [16] was 3030 nM, the GI50 [17] was 2880 nM and the IC50 [17] was 3350 nM. It also gave a GI50 [18] of 107 nM, an IC50 [18] of 184 nM and a GI50 [19] of 3.4 nM. It also gave an IC50 [19] of 12 nM, a GI50 (MeWo, MEWO (Skin, Melanoma)) of 102 nM and an IC50 (MeWo, MEWO (Skin, Melanoma)) of 159 nM. The GI50 [20] was > 10000 nM, the IC50 [20] was > 10000 nM and the GI50 [21] was 5000 nM. The IC50 [21] was > 10000 nM, the GI50 [22] was 278 nM and the IC50 [22] was 686 nM. The GI50 [23] was > 10000 nM, the IC50 [23] was > 10000 nM and the GI50 (NCI-H441, 72 h, NCIH441, Lung, NSCLC, 72 h) was 271 nM.
